The structures appear in SMILES notation. Numbered stars: 1 amine (or outer) side, 2 acyl side, 3 side chain; on linkers, the order of the positions; unused ones are H or OH. Square brackets hold non-standard residues; d marks the D form. Peptide text beside a SMILES is read from it. * marks the point of attachment. 5FAM = O=C1OC2(c3ccc(O)cc3Oc3cc(O)ccc32)c2ccc(C(=O)*)cc21; NHCH2C6H4(4-CH2CONH2) = NC(=O)Cc1ccc(CN*)cc1; X1 = O=C(Cc1ccc(CN[*:1])cc1)[*:2]

As a reminder, the Kd is a measure of binding affinity in units of concentration.

Sequence of TNFα (P01375 77-233 limits assumed): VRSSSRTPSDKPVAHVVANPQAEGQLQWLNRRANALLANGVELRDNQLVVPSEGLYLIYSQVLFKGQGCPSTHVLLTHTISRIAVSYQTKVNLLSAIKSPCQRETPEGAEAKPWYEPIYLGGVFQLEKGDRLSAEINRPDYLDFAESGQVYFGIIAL

This assay concerns the target TNFα (Homo sapiens, UniProt P01375). Kind of assay: MST binding affinity of resynthesized NNP hits to TNFα. Details: purchased R&D Systems, Inc. 210-TA/CF. As to conditions: read-out: KD (nM) [95% conf. int], NNP2 library hit, target TNFα, one-site binding model. The method, then: Hit binding affinity to various targets were determined using Microscale Thermophoresis (MST). MST experiments were performed on a Monolith NT.115pico (NanoTemper Technologies GmbH, Munich, Germany). Measurements were performed at room temperature, in triplicate with incubation periods of 15, 30 and 45 minutes. […] Targets were labeled using Nanotemper Monolith 2nd Generation Protein Labeling Kits. RED-MALEIMIDE (Maleimide-647-dye) labeling kit was used for K-Ras and RED-NHS (NHS-647-dye) labeling kit was used for IL-6, IL-6R, TNFα and ASGPR. The buffer for the ASGPR contained 20 mM HEPES pH 7.4, 150 mM NaCl, 10 mM MgCl2, 2 mM CaCl2, 0.05% Pluronic F-127, and 1 mM DTT; for IL-6 contained 20 mM HEPES pH 7.4, 150 mM KCl, 10 mM MgCl2, and 0.1% Pluronic F-127; for the soluble IL-6 receptor 20 mM HEPES pH 7.4, 150 mM NaCl, 10 mM MgCl2, and 0.05% Tween-20; for K-Ras 20 mM HEPES pH 7.4, 150 mM NaCl, 10 mM MgCl2, 0.05% Tween-20 and 1 mM DTT; for TNFα 10 mM HEPES pH 7.4, 150 mM NaCl, 10 mM MgCl2, 0.05% Polysorbate-20. Triplicate data was analyzed using MO.AffinityAnalysis software (NanoTemper Technologies GmbH).
Take `CC(C)C[C@H](NC(=O)[C@@H](CCC(=O)O)NC(=O)[C@H]1CCCN1C(=O)Cc1ccc(CNC(=O)[C@H](CC(C)C)NC(=O)[C@@H](CCCCN)NC(=O)[C@@H](Cc2ccccc2)NC(=O)Cc2ccc(CNC(=O)[C@@H](NC(=O)[C@@H](CCC(=O)O)NC(=O)[C@@H](Cc3ccccc3)NC(=O)Cc3ccc(CNC(=O)[C@H](CC(C)C)NC(=O)[C@@H](CCCNC(=N)N)NC(=O)[C@@H](CC(C)C)NC(=O)Cc4ccc(CNC(=O)[C@H](Cc5ccccc5)NC(=O)[C@@H](CC(C)C)NC(=O)[C@H](NC(=O)c5ccc6c(c5)C(=O)OC65c6ccc(O)cc6Oc6cc(O)ccc65)[C@H](C)O)cc4)cc3)C(C)C)cc2)cc1)C(=O)NCc1ccc(CC(=O)N2CCC[C@@H]2C(=O)N[C@H](CCC(=O)O)C(=O)N[C@@H](Cc2ccccc2)C(=O)NCc2ccc(CC(=O)N[C@H](Cc3c[nH]cn3)C(=O)N[C@H](CCC(=O)O)C(=O)N[C@@H](CC(C)C)C(=O)NCc3ccc(CC(=O)N4CCC[C@@H]4C(=O)N[C@H](CCCNC(=N)N)C(=O)N[C@@H](C)C(=O)NCc4ccc(CC(=O)N[C@H](Cc5c[nH]cn5)C(=O)N[C@H](Cc5ccc(O)cc5)C(=O)N[C@H](C(=O)NCc5ccc(CC(N)=O)cc5)C(C)C)cc4)cc3)cc2)cc1` [TNF-39-4] (5FAM-[dT][dL]F[X1][dL][dR]L[X1][dF][dE]V[X1][dF][dK]L[X1][dP][dE]L[X1][dP][dE]F[X1][dH][dE]L[X1][dP][dR]A[X1][dH][dY]V-{NHCH2C6H4(4-CH2CONH2)}): the Kd came to 28 nM.

Turning to `CC(C)C[C@H](NC(=O)[C@@H](CCCNC(=N)N)NC(=O)[C@@H](CC(C)C)NC(=O)Cc1ccc(CNC(=O)[C@H](CC(C)C)NC(=O)[C@H](NC(=O)[C@@H](CCCCN)NC(=O)c2ccc3c(c2)C(=O)OC32c3ccc(O)cc3Oc3cc(O)ccc32)C(C)C)cc1)C(=O)NCc1ccc(CC(=O)N[C@H](Cc2ccccc2)C(=O)N[C@H](CCC(=O)O)C(=O)N[C@H](C(=O)NCc2ccc(CC(=O)N[C@H](Cc3ccccc3)C(=O)N[C@H](CCCNC(=N)N)C(=O)N[C@@H](C)C(=O)NCc3ccc(CC(=O)N[C@H](Cc4ccc(O)cc4)C(=O)N[C@H](CCCCN)C(=O)N[C@@H](C)C(=O)NCc4ccc(CC(=O)N[C@H](CCC(=O)O)C(=O)N[C@H](CO)C(=O)N[C@H](C(=O)NCc5ccc(CC(=O)N6CCC[C@@H]6C(=O)N[C@@H](C(=O)NCC(=O)NCc6ccc(CC(=O)N7CCC[C@@H]7C(=O)N[C@H](CCCNC(=N)N)C(=O)N[C@@H](C)C(=O)NCc7ccc(CC(=O)N[C@H](Cc8ccccc8)C(=O)N[C@H](CCCCN)C(=O)NCC(=O)NCc8ccc(CC(N)=O)cc8)cc7)cc6)C(C)C)cc5)C(C)C)cc4)cc3)cc2)C(C)C)cc1` [TNF-39-5] (5FAM-[dK][dV]L[X1][dL][dR]L[X1][dF][dE]V[X1][dF][dR]A[X1][dY][dK]A[X1][dE][dS]V[X1][dP][dV]G[X1][dP][dR]A[X1][dF][dK]G-{NHCH2C6H4(4-CH2CONH2)}), the dissociation constant Kd was determined as 23 nM. With `CC(C)C[C@H](NC(=O)[C@@H](CCCNC(=N)N)NC(=O)[C@@H](CC(C)C)NC(=O)Cc1ccc(CNC(=O)[C@H](CC(C)C)NC(=O)[C@@H](CC(C)C)NC(=O)[C@@H](Cc2ccc(O)cc2)NC(=O)c2ccc3c(c2)C(=O)OC32c3ccc(O)cc3Oc3cc(O)ccc32)cc1)C(=O)NCc1ccc(CC(=O)N[C@H](Cc2ccccc2)C(=O)N[C@H](CCC(=O)O)C(=O)N[C@H](C(=O)NCc2ccc(CC(=O)N3CCC[C@@H]3C(=O)N[C@H](CCCNC(=N)N)C(=O)N[C@H](C(=O)NCc3ccc(CC(=O)N[C@H](Cc4c[nH]c5ccccc45)C(=O)N[C@H](CCCNC(=N)N)C(=O)N[C@H](C(=O)NCc4ccc(CC(=O)N[C@H](CCCNC(=N)N)C(=O)N[C@H](Cc5ccc(O)cc5)C(=O)N[C@@H](CC(C)C)C(=O)NCc5ccc(CC(=O)N[C@H](CCC(=O)O)C(=O)N[C@@H](C(=O)N[C@H](C(=O)NCc6ccc(CC(=O)N[C@@H](C(=O)N[C@H](Cc7c[nH]cn7)C(=O)N[C@@H](CC(C)C)C(=O)NCc7ccc(CC(=O)N[C@H](Cc8ccc(O)cc8)C(=O)N[C@H](CCCNC(=N)N)C(=O)N[C@@H](Cc8ccccc8)C(=O)NCc8ccc(CC(N)=O)cc8)cc7)[C@H](C)O)cc6)C(C)C)C(C)C)cc5)cc4)C(C)C)cc3)C(C)C)cc2)C(C)C)cc1` [TNF-39-6] (5FAM-[dY][dL]L[X1][dL][dR]L[X1][dF][dE]V[X1][dP][dR]V[X1][dW][dR]V[X1][dR][dY]L[X1][dE][dV]V[X1][dT][dH]L[X1][dY][dR]F-{NHCH2C6H4(4-CH2CONH2)}), the Kd was determined as 93 nM. For the compound `CC(C)C[C@H](NC(=O)[C@@H](CCCCN)NC(=O)[C@@H](Cc1ccccc1)NC(=O)Cc1ccc(CNC(=O)[C@H](CC(C)C)NC(=O)[C@H](NC(=O)[C@@H](CCCNC(=N)N)NC(=O)Cc2ccc(CNC(=O)[C@H](CC(C)C)NC(=O)[C@@H](CCCNC(=N)N)NC(=O)[C@@H](CC(C)C)NC(=O)Cc3ccc(CNC(=O)[C@H](CC(C)C)NC(=O)[C@H](NC(=O)[C@@H](CCCCN)NC(=O)c4ccc5c(c4)C(=O)OC54c5ccc(O)cc5Oc5cc(O)ccc54)C(C)C)cc3)cc2)C(C)C)cc1)C(=O)NCc1ccc(CC(=O)N[C@H](C)C(=O)N[C@H](CCCCN)C(=O)N[C@@H](Cc2ccccc2)C(=O)NCc2ccc(CC(=O)N[C@H](Cc3ccccc3)C(=O)N[C@@H](C(=O)N[C@@H](C)C(=O)NCc3ccc(CC(=O)N4CCC[C@@H]4C(=O)NCC(=O)N[C@H](C(=O)NCc4ccc(CC(=O)N[C@H](CCCCN)C(=O)N[C@H](Cc5ccccc5)C(=O)N[C@@H](Cc5ccccc5)C(=O)NCc5ccc(CC(=O)N[C@H](C)C(=O)N[C@@H](C(=O)N[C@@H](CC(C)C)C(=O)NCc6ccc(CC(N)=O)cc6)C(C)C)cc5)cc4)C(C)C)cc3)[C@H](C)O)cc2)cc1` [TNF-39-7] (5FAM-[dK][dV]L[X1][dL][dR]L[X1][dR][dV]L[X1][dF][dK]L[X1][dA][dK]F[X1][dF][dT]A[X1][dP]GV[X1][dK][dF]F[X1][dA][dV]L-{NHCH2C6H4(4-CH2CONH2)}), the Kd came out at 53 nM. Take `CC(C)C[C@H](NC(=O)[C@@H](CCCNC(=N)N)NC(=O)[C@@H](Cc1c[nH]c2ccccc12)NC(=O)Cc1ccc(CNC(=O)[C@@H](NC(=O)[C@@H](CCC(=O)O)NC(=O)[C@@H](Cc2ccccc2)NC(=O)Cc2ccc(CNC(=O)[C@H](C)NC(=O)[C@@H](Cc3c[nH]cn3)NC(=O)[C@@H](Cc3c[nH]c4ccccc34)NC(=O)Cc3ccc(CNC(=O)[C@H](CC(C)C)NC(=O)[C@H](NC(=O)[C@@H](CCCCN)NC(=O)c4ccc5c(c4)C(=O)OC54c5ccc(O)cc5Oc5cc(O)ccc54)C(C)C)cc3)cc2)C(C)C)cc1)C(=O)NCc1ccc(CC(=O)N[C@H](Cc2ccc(O)cc2)C(=O)N[C@H](CCCCN)C(=O)N[C@@H](C)C(=O)NCc2ccc(CC(=O)N[C@H](CC(N)=O)C(=O)N[C@H](CCCNC(=N)N)C(=O)N[C@@H](Cc3ccccc3)C(=O)NCc3ccc(CC(=O)N4CCC[C@@H]4C(=O)N[C@@H](C(=O)NCC(=O)NCc4ccc(CC(=O)N5CCC[C@@H]5C(=O)N[C@H](CCCNC(=N)N)C(=O)N[C@@H](C)C(=O)NCc5ccc(CC(=O)N[C@H](C)C(=O)N[C@H](CCCCN)C(=O)NCC(=O)NCc6ccc(CC(N)=O)cc6)cc5)cc4)C(C)C)cc3)cc2)cc1` [TNF-39-8] (5FAM-[dK][dV]L[X1][dW][dH]A[X1][dF][dE]V[X1][dW][dR]L[X1][dY][dK]A[X1][dN][dR]F[X1][dP][dV]G[X1][dP][dR]A[X1][dA][dK]G-{NHCH2C6H4(4-CH2CONH2)}): the Kd worked out at 270 nM.

As to `CC(C)C[C@H](NC(=O)[C@@H](CCCNC(=N)N)NC(=O)CNC(=O)Cc1ccc(CNC(=O)[C@H](CC(C)C)NC(=O)[C@H](NC(=O)[C@@H](CCCCN)NC(=O)c2ccc3c(c2)C(=O)OC32c3ccc(O)cc3Oc3cc(O)ccc32)C(C)C)cc1)C(=O)NCc1ccc(CC(=O)N[C@H](CCCNC(=N)N)C(=O)N[C@@H](C(=O)N[C@@H](CC(C)C)C(=O)NCc2ccc(CC(=O)N[C@H](Cc3c[nH]c4ccccc34)C(=O)N[C@H](CCCNC(=N)N)C(=O)N[C@@H](CC(C)C)C(=O)NCc3ccc(CC(=O)N[C@H](Cc4c[nH]c5ccccc45)C(=O)N[C@H](CCCNC(=N)N)C(=O)N[C@H](C(=O)NCc4ccc(CC(=O)N[C@H](CO)C(=O)N[C@H](CO)C(=O)N[C@@H](Cc5ccccc5)C(=O)NCc5ccc(CC(=O)N[C@H](C)C(=O)N[C@H](CO)C(=O)N[C@@H](Cc6ccccc6)C(=O)NCc6ccc(CC(=O)N[C@H](Cc7c[nH]c8ccccc78)C(=O)N[C@H](CCCCN)C(=O)N[C@@H](CC(C)C)C(=O)NCc7ccc(CC(=O)N[C@H](Cc8ccc(O)cc8)C(=O)N[C@H](CCCNC(=N)N)C(=O)N[C@@H](Cc8ccccc8)C(=O)NCc8ccc(CC(N)=O)cc8)cc7)cc6)cc5)cc4)C(C)C)cc3)cc2)C(C)C)cc1` [TNF-39-9] (5FAM-[dK][dV]L[X1]G[dR]L[X1][dR][dV]L[X1][dW][dR]L[X1][dW][dR]V[X1][dS][dS]F[X1][dA][dS]F[X1][dW][dK]L[X1][dY][dR]F-{NHCH2C6H4(4-CH2CONH2)}), the Kd came out at 150 nM.

The record behind these values is patent publication US20230393140A1, “BINDING ASSAYS INVOLVING A PLURALITY OF SYNTHETIC COMPOUNDS, TARGETS, AND COUNTER TARGETS” (SRI International, priority 2020, published 2023).
